Experimental data taken from patent US7838045B2, “Anti-inflammatory activity of phenethylisothiocyanate (PEITC) and the Barbarea verna seed preparation containing this compound” (priority 2005, dated 2010).

Tests used:
Format in all cases: cell-based, mouse
[1] = tested on: COX2; assay: qPCR gene expression in LPS-stimulated RAW264.7 macrophages, COX2; details: for COX2 % down-regulation: 8 hour treatment
Procedure: (§1) The mouse monocyte/macrophage cell line RAW 264.7 (obtained from American Type Culture Collection, ATCC, VA USA) was maintained in Dulbecco's Modified Eagle Medium (DMEM) (Invitrogen Inc) supplemented with 100 U/ml penicillin, 100 μg/ml streptomycin, and 10% heat-inactivated fetal calf serum. All incubations were at 37° C. in a 5% CO2 in internal air atmosphere, within the growth chamber.
Cells were seeded at a density of 0.4×10^6 cells per well (viable cell counts performed with a hemocytometer), in 24 well plates 12 hours prior to treatment. The cells were then treated with test compounds at required concentrations (pre-determined doses) for 2 hours before elicitation with LPS at 1 μg/ml for an additional 6 hours. For every experiment one positive control (cells treated only with LPS) and one negative control (cells without any treatment) were included. For treatments and the controls, two replicates were made in each case. At the end, cells were harvested in Trizol reagent (Invitrogen Inc) for subsequent cellular RNA extraction. […] Cell viability was measured by MTT assay (Mosmann (1983) J. Immunol. Methods 65:55-63).
(§2) Total RNA was extracted from RAW macrophages using Trizol reagent (Invitrogen Inc.) following manufacturer instructions. RNA was quantified spectro-photometrically by absorption measurements at 260 nm and 280 nm using NanoDrop™ system (NanoDrop Technologies Inc. DE, USA). RNA was assessed qualitatively by gel-electrophoresis methods. RNA was then treated with DnaseI (Invitrogen Inc.) also following manufacturer guidelines, to remove any traces of DNA contamination. The cDNAs were synthesized using 3 μg of RNA for each sample using Stratascript™ Reverse Transcriptase, an RNA dependent DNA polymerase (Stratagene, La Jolla, Calif.), following manufacturer protocol. Utmost care was taken to minimize any quantification inaccuracy and pipetting error.
(§3) The synthesized cDNAs were diluted 4-fold. 2 μl of each of these diluted samples were used for PCR reactions of 25 μl final volume. The other components of the PCR reactions were 0.5 μl of 6 μM gene specific primers (oligos synthesized by IDT Inc. USA), 12.5 μl of Brilliant SYBR green PCR master mix (2×) (Stratagene, La Jolla, Calif.) containing green jump-start Taq ready mix. ROX (Stratagene, La Jolla, Calif.) was used as an internal dye. To avoid interference due to genomic DNA contamination, only intron-overlapping primers were selected using the software Primer Express™ (Applied Biosystem, Foster City, Calif.) as follows:
(§4) Forward and reverse pairs of the primers are indicated above as “F” and “R” respectively. PCR amplifications were performed on MX3000p system (Stratagene, La Jolla, Calif.) using 1 cycle at 50° C. for 2 min, 1 cycle of 95° C. for 10 minutes, followed by 40 cycles of 15 seconds at 95° C. and 1 min at 60° C. The dissociation curve was completed with one cycle of 1 minute at 95° C., 30 seconds of 55° C. and 30 seconds of 95° C. NRT (non-RT control) and NTC (no template control) were included in the PCR program as quality control steps.
(§5) RNA expressions for COX2, iNOS and IL1β, normalized with respect to the expression of housekeeping β-actin gene, were analyzed using the ΔΔCt method (software from Stratagene inc, USA) as described by Pfaffl (Pfaffl, 2001, Nucleic Acids Res 29(9):2002-2007). The ΔΔCt values obtained from these analyses were converted [(1−ΔΔCt)×100] to obtain percentage of inhibition (% inhibition or % downregulation) which reflected the anti-inflammatory properties of the test compounds (Table 2, 4). A value of 100% indicates complete inhibition of LPS-stimulated genetic up-regulation. 0% implies absence of any anti-inflammatory activity of the test compound.

[2] = tested on: IL1β; assay: qPCR gene expression in LPS-stimulated RAW264.7 macrophages, IL1β; details: for IL1β % down-regulation: 8 hour treatment
Procedure: as §1
(§6) Cells were seeded at a density of 0.4×10^6 cells per well (viable cell counts performed with a hemocytometer), in 24 well plates 12 hours prior to treatment. The cells were then treated with test compounds at required concentrations (pre-determined doses) for 2 hours before elicitation with LPS at 1 μg/ml for an additional 6 hours. For every experiment one positive control (cells treated only with LPS) and one negative control (cells without any treatment) were included. For treatments and the controls, two replicates were made in each case. At the end, cells were harvested in Trizol reagent (Invitrogen Inc) for subsequent cellular RNA extraction. The stock of BSP used for the assay was prepared by partially dissolving 50 mg/ml seed preparation in 95% ethyl alcohol for 15 minutes by sonication, where it released PEITC in the clear supernatant that was used for the cell treatment. Cell viability was measured by MTT assay (Mosmann (1983) J. Immunol. Methods 65:55-63).
as §2, §3, §4
as §5, with “compound. […]” for “compound.”

[3] = tested on: iNOS; assay: qPCR gene expression in LPS-stimulated RAW264.7 macrophages, iNOS; details: for iNOS % down-regulation: 8 hour treatment
Procedure: as §1, §6, §2, §3, §4
as §5, with “compound. […]” for “compound.”

[4] = Mus musculus, RAW264.7, pure compound

| Compound | COX2 % down-regulation ([1]; 5 μM) | IL1β % down-regulation ([2]; 5 μM) [%] | iNOS % down-regulation ([3]; 5 μM) [%] | COX2 % down-regulation ([1]; 10 μM) | IL1β % down-regulation ([2]; 10 μM) [%] | iNOS % down-regulation ([3]; 10 μM) [%] | COX2 % down-regulation ([1]; 1 μM) [%] | COX2 % down-regulation ([1]; 20 μM) [%] | IL1β % down-regulation ([2]; 1 μM) [%] | IL1β % down-regulation ([2]; 20 μM) [%] | iNOS % down-regulation ([3]; 1 μM) [%] | iNOS % down-regulation ([3]; 20 μM) [%] | also measured |
| --- | --- | --- | --- | --- | --- | --- | --- | --- | --- | --- | --- | --- | --- |
| C=CCN=C=S [Allyl] | Up-regulation | 86 | 76 | – | – | – | – | – | – | – | – | – | IL1β % down-regulation ([2]; 5 μM, listed as allyl): equally active as PEITC; iNOS % down-regulation ([3]; 5 μM, listed as allyl): equally active as PEITC |
| CC(C)N=C=S [Isopropyl] | Up-regulation | 40 | 9 | Up-regulation | 59 | 7 | – | – | – | – | – | – | – |
| S=C=NCCc1ccccc1 [PEITC, phenethylisothiocyanate] | 19.0 ± 27.1% | 86.0 ± 9.8 | 69.8 ± 21.1 | 28.3 ± 15.0% | 92.0 ± 10.4 | 81.7 ± 5.5 | −73.5 ± 20.5 | 99.5 ± 0.7 | 36.5 ± 9.2 | 100.0 ± 0.0 | 2.0 ± 7.1 | 99.5 ± 0.7 | COX2 % down-regulation ([1]; 40 μM): 100.0 ± 0.0%; COX2 % down-regulation ([1]; 80 μM): 100.0 ± 0.0%; IC50 [1, 4]: 17 µM; IL1β % down-regulation ([2]; 40 μM): 100.0 ± 0.0%; IL1β % down-regulation ([2]; 80 μM): 100.0 ± 0.0%; IC50 ([2]; Mus musculus, RAW264.7, pure compound, read-out: IC50 in IL1 β-assay): 2 µM; iNOS % down-regulation ([3]; 40 μM): 99.5 ± 0.7%; iNOS % down-regulation ([3]; 80 μM): 99.5 ± 0.7%; IC50 [3, 4]: 4 µM |
| S=C=Nc1ccccc1 [Phenyl] | Up-regulation | 47 | 31 | 3% | 59 | 35 | – | – | – | – | – | – | – |
| CC(C)(C)N=C=S [Tert-butyl] | Up-regulation | 44 | 3 | Up-regulation | 61 | 0 | – | – | – | – | – | – | – |
| CS(=O)(=O)c1ccc(C2=C(c3ccccc3)C(=O)OC2)cc1 [rofecoxib] | 8% | 10 | 37 | 22% | 12 | 68 | −52 | 25 | 18 | 15 | 35 | 45 | – |
